One experiment concerns the target α-glucosidase. The settings on record: cited from earlier work.
The target of experiment [1] is T1, α-glucosidase (maltase) enzyme from Yeast (Saccharomyces cerevisiae, UniProt P53341).
T1 construct: purchased Sisco Research Laboratories Pvt; Ltd
Description: biochemical. Format: biochemical. Here is the method: The test compounds were evaluated for their α-glucosidase inhibitory activity following the methodology outlined by Pistia et al.[62] and Bhatia et al.[63] […] The compounds at varied concentrations ranging from 50 to 200 μg mL^−1 were combined with 50 μL of α-glucosidase (maltase) enzyme solution (1 U mL^−1) from Yeast (Sisco Research Laboratories Pvt. Ltd). The mixer was placed at a temperature of 37 °C for duration of 15 minutes, after the addition of 0.1 M phosphate buffer (pH 6.8). Afterward, 25 μl of substrate buffer was introduced into the system to initiate the reaction, and the incubation was prolonged at a temperature of 37 °C for a length of 15 minutes. Finally, the reaction was stopped by adding 50 μl of a 0.2 M sodium carbonate solution, thereby terminating the processes. The measurement was determined at a wavelength of 450 nm. […] The measurement of enzyme activity was carried out as follows.
The formula for calculating the percentage is (ODblank − ODsample) divided by ODblank, multiplied by 100.
A unit of enzyme may be accurately defined as the amount of α-glucosidase enzyme required to generate one micromole of p-nitrophenol (product) from p-nitrophenyl-α-D-glucopyranoside (substrate) for a time of one minute. The IC50, representing the concentration required to inhibit 50% of the enzyme activity, was determined by fitting a regression equation to a graph that plotted concentration (varying from 50–200 μg mL^−1) on the X-axis and percentage of inhibition on the Y-axis for various fractions and extracts.

The mark [2] stands for this setting: hydrazine-type compounds, Fig. 1.
Where [3] appears, read: compounds with phenyl rings, Fig. 1.
Where [4] appears, read: yeast α-glucosidase (maltase) 1 U mL^−1, phosphate buffer pH 6.8, 37 °C.
[5] abbreviates: yeast α-glucosidase (maltase) 1 U mL^−1, phosphate buffer pH 6.8, 37 °C, read-out: IC50 (α-glucosidase inhibition).

Read-outs that look alike come from different tables or passages of the source.

T1 sequence (P53341 whole entry): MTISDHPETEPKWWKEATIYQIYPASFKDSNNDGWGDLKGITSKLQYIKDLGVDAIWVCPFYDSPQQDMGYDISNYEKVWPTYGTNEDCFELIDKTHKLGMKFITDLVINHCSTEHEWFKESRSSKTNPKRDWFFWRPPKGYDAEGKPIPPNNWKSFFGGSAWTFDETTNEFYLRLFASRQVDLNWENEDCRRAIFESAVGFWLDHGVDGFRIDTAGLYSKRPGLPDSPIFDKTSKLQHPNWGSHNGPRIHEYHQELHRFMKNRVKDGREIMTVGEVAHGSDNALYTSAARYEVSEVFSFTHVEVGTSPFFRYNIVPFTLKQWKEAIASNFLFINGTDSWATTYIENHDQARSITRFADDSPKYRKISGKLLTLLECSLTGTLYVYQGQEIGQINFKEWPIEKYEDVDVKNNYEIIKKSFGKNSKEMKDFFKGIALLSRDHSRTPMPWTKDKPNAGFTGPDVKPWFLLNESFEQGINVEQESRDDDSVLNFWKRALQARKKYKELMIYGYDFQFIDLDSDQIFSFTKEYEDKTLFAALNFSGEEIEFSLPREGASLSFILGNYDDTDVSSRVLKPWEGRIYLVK

`CC(C(=O)NNC(=O)c1cccc(Cl)c1)c1ccc(-c2ccccc2)c(F)c1` (centres unmarked) [IV]: the IC50 (usually the concentration at which inhibition is half-maximal) at α-glucosidase (setting [2]) was 10400 nM. As to `Fc1ccccc1/C=N/c1ccc2cn[nH]c2c1` [V], the IC50 at α-glucosidase (setting [3]) was 8510 nM.

Consider `COc1ccc(C=CC(=O)NNC(=O)C(c2cc(F)c(F)cc2F)C2CCCC2)cc1` (centres unmarked) [Compound 7e, N′-(2-Cyclopentyl-2-(2,4,5-trifluorophenyl)acetyl)-3-(4-methoxyphenyl)acrylohydrazide], for which, in experiment [1] (setting [4]), the “IC50 (α-glucosidase inhibition)” value is recorded as “no effect on inhibition”.

In turn, `O=C(C=Cc1ccccc1)NNC(=O)C(c1cc(F)c(F)cc1F)C1CCCC1` (centres unmarked) [Compound 7a, N′-(2-cyclopentyl-2-(2,4,5-trifluorophenyl)acetyl)cinnamohydrazide] had an IC50 in experiment [1] of 85.2 nM. In experiment [1], `O=C(C=Cc1ccccc1)NNC(=O)C(c1ccccc1)C1CCCC1` (centres unmarked) [Compound 6a, N′-(2-Cyclopentyl-2-phenylacetyl)cinnamohydrazide] returned an IC50 of 79.8 nM. In experiment [1], `O=C(C=Cc1ccccc1Br)NNC(=O)C(c1ccccc1)C1CCCC1` (centres unmarked) [Compound 6b, 3-(2-Bromophenyl)-N′-(2-cyclopentyl-2-phenylacetyl)acrylohydrazide] yielded a half-maximal inhibitory concentration (IC50) of 104 nM. In addition, in experiment [1] (setting [4]), the “IC50 (α-glucosidase inhibition)” value is listed as “moderate inhibition”. In experiment [1], `O=C(C=Cc1cccc([N+](=O)[O-])c1)NNC(=O)C(c1ccccc1)C1CCCC1` (centres unmarked) [Compound 6g, 3-(3-Nitrophenyl)-N′-(2-cyclopentyl-2-phenylacetyl)acrylohydrazide] had a concentration for half-maximal inhibition (IC50) of 28.5 nM. As for `O=C(/C=C/c1ccc(O)cc1)N1CC(O)C(O)C1` (centres unmarked) [II], at α-glucosidase (deacetylsarmentamide derivative), the 50% inhibitory concentration (IC50) is 546000 nM. For the molecule `O=C(C=Cc1ccc(Br)cc1)NNC(=O)C(c1ccccc1)C1CCCC1` (centres unmarked) [Compound 6d, 3-(4-Bromophenyl)-N′-(2-cyclopentyl-2-phenylacetyl)acrylohydrazide], in experiment [1], the IC50 was 64.8 nM.

Turning to `O=C(C=Cc1cccc(Cl)c1)NNC(=O)C(c1cc(F)c(F)cc1F)C1CCCC1` (centres unmarked) [Compound 7d, 3-(3-Chlorophenyl)-N′-(2-cyclopentyl-2-(2,4,5-trifluorophenyl)acetyl)acrylohydrazide], the 50% inhibitory concentration (IC50) in experiment [1] (setting [5]) stood at 18.9 nM.

On to `O=C(C=Cc1ccc(Br)cc1)NNC(=O)C(c1cc(F)c(F)cc1F)C1CCCC1` (centres unmarked) [Compound 7c, 3-(4-Bromophenyl)-N′-(2-cyclopentyl-2-(2,4,5-trifluorophenyl)acetyl)acrylohydrazide], for which the IC50 in experiment [1] (setting [5]) was 49.3 nM. Take `O=C(C=Cc1cccc(Br)c1)NNC(=O)C(c1ccccc1)C1CCCC1` (centres unmarked) [Compound 6c, 3-(3-Bromophenyl)-N′-(2-cyclopentyl-2-phenylacetyl)acrylohydrazide]: the IC50 in experiment [1] was determined as 46.8 nM. For the molecule `Cc1ccc(C=CC(=O)NNC(=O)C(c2cc(F)c(F)cc2F)C2CCCC2)cc1` (centres unmarked) [Compound 7b, N′-(2-Cyclopentyl-2-(2,4,5-trifluorophenyl)acetyl)-3-(p-tolyl)acrylohydrazide], the IC50 in experiment [1] (setting [5]) is 14.5 nM. In turn, `O=C(C=Cc1cccc(Br)c1)NNC(=O)C(c1cc(F)c(F)cc1F)C1CCCC1` (centres unmarked) [Compound 7f, 3-(3-Bromophenyl)-N′-(2-cyclopentyl-2-(2,4,5-trifluorophenyl)acetyl)acrylohydrazide] displayed an IC50 in experiment [1] of 33.2 nM. Turning to `CC(C(=O)NN)c1ccc(-c2ccccc2)c(F)c1` (centres unmarked) [III], the IC50 on α-glucosidase (setting [2]) was 25200 nM. `O=C(C=Cc1cccc([N+](=O)[O-])c1)NNC(=O)C(c1cc(F)c(F)cc1F)C1CCCC1` (centres unmarked) [Compound 7g, 3-(3-Nitrophenyl)-N′-(2-cyclopentyl-2-(2,4,5-trifluorophenyl)acetyl)acrylohydrazide] had an IC50 in experiment [1] of 54.8 nM.

`Cc1ccc(C=CC(=O)NNC(=O)C(c2ccccc2)C2CCCC2)cc1` (centres unmarked) [Compound 6e, N′-(2-Cyclopentyl-2-phenylacetyl)-3-(p-tolyl)acrylohydrazide] registered an IC50 in experiment [1] of 233 nM. For the same molecule, the “IC50 (α-glucosidase inhibition)” value in experiment [1] (setting [4]) was “moderate inhibition”.

Regarding `C=CCc1ccc(OC(=O)/C=C/c2ccc(O)cc2)c(-c2cc(CC=C)ccc2OC(=O)/C=C/c2ccc(O)cc2)c1` [I], the Ki (usually the dissociation constant of the complex between target and ligand, obtained from inhibition or displacement) on α-glucosidase (Fig. 1) was 2480 nM. For the same molecule, the IC50 on α-glucosidase (cinnamic acid magnolol derivative) was 5110 nM.

As to `O=[N+]([O-])c1ccc2cc(-c3ncc(-c4ccccc4F)o3)oc2c1` [VI], the IC50 at α-glucosidase (setting [3]) was 13400 nM.

Regarding `O=C(/C=C/c1ccc(F)cc1)NNC(=O)C(c1ccccc1)C1CCCC1` (centres unmarked) [Compound 6f, 3-(4-Fluoro)-N′-(2-cyclopentyl-2-phenylacetyl)acrylohydrazide], the “IC50 (α-glucosidase inhibition)” value in experiment [1] (setting [4]) is “no inhibition effect”.

The values are drawn from publication PMC12093506, “Synthesis, characterization, and in vitro and in silico α-glucosidase inhibitory evolution of novel N′-(2-cyclopentyl-2-phenylacetyl)cinnamohydrazide derivatives” (RSC Advances, 2025).
